Experimental data from patent US12673953B2, “Process for preparing an amorphous form of 2-[3-[4-amino-3-(2-fluoro-4-phenoxyphenyl)pyrazolo[3,4-d]pyrimidin-1-yl]piperidine-1-carbonyl]-4-methyl-4-[4-(oxetan-3-yl)piperazin-1-yl]pent-2-enenitrile” (Principia Biopharma Inc., priority 2019, dated 2026).

Legend:
Format in all cases: physicochemical
[1] = Wet particle size distribution by laser diffraction (Malvern Mastersizer 3000); details: dispersant heptane with 0.2% Span 80
Protocol: Wet particle size distributions were measured using a Malvern Mastersizer 3000 laser diffraction particle size analyzer, with stir speed set at 2200 rpm. Heptane with 0.2% by volume of Span 80 was used as dispersant. To obtain distribution measurements, the Hydro MV medium volume automated dispersion unit was filled with dispersant and aligned. The background was then measured. 80 to 100 mg of sample weighed into a 20 mL vial, to which approximately 3 mL of dispersant was added. The mass was adjusted based on the particle size, with obscuration between 5% and 16%. The whole sample was added to the Hydro MV unit, and the sample was analyzed five times after a 160 second pre-measurement delay. Analysis time was 20 seconds (10 seconds with the red laser, 10 seconds with the blue laser) with no delay between measurements. Data obtained was processed using Mie theory with a sample refractive index of 1.69 and absorption index of 0.1, using the general purpose model with normal sensitivity and the non-spherical particle type. 15 sets of raw data were averaged to form the Global Mean, which represents the average for a sample. If the sample was determined to be variable, further preparations were examined to determine which results were anomalous. Any anomalous results were discarded. Samples were thoroughly mixed prior to sampling (e.g., some samples were aliquoted using a spinning […]).

[2] = Mean bulk density, mean tapped density and Hausner ratio (modified USP <616>); details: for Hausner ratio: ratio of initial volume to constant volume (Vo/Vf)
Protocol: Mean bulk density and mean tapped density were determined using a modified method based on USP <616>. Powder was poured into a clean, dry pre-weighed 25 mL cylinder. Powder was added to a total volume of 20 mL to 25 mL without compacting the sample. The mass and initial volume (Vo) of the powder were recorded. The mean bulk density was determined as the average of the mass over initial volume across multiple samples. To determine mean tapped density, the sample was tapped using a Copley JV2000 tapped density tester using the following number of taps: 500, 750, and sets of 1250 taps up to 10,000. The volume was recorded after each set of taps, and the sample was tapped until it reached a constant volume (Vf). The mean tapped density was determined as the average of mass over constant volume across multiple samples. Each sample was analyzed in duplicate. The Hausner ratio was calculated as the ratio of initial volume to the constant volume (Vo/Vf).

[3] = Thermogravimetric analysis (TA Instruments Q5000 TGA)
Protocol: Thermal gravimetric analysis of the samples was performed using the TA Instruments Q5000 TGA. Table 5 provides thermogravimetric analysis data for several distinct solid forms of Compound (I), including mass loss information from multiple replicates across different temperature ranges. As above, Comparator 1 corresponds to the solid form of Compound (I) prepared substantially in accordance with the process detailed in Step 1A in Example 1 of WO 2015/127310. Also, as above, Comparator 2 corresponds to the solid form of Compound (I) prepared substantially in accordance with the process detailed in Example 31 of WO 2014/039899. Comparator 3 corresponds to the solid form of Compound (I) prepared substantially in accordance with the process detailed in Step 1 in Example 1 of WO 2015/127310.

[4] = Modulated differential scanning calorimetry, glass transition temperature (TA Instrument Q2000 DSC); details: for Tg at 25° C., 0% RH: 0% relative humidity
Protocol: Modulated differential scanning calorimetry (DSC) analysis was completed with a TA Instrument Q2000 DSC. The samples were heated at 2° C. min^−1, temperature modulation parameters of 0.318° C. (amplitude), and over a temperature range of 6-80° C. to 200° C. The samples were analyzed using a closed aluminum pan.

SMILES | Wet particle size distribution D10 [1] | Wet particle size distribution D50 [1] | Wet particle size distribution D90 [1] | Mean bulk density [2] | Mean tapped density [2] | Hausner ratio [2] | Tg at 25° C., 0% RH [4] | further results
CC(C)(C=C(C#N)C(=O)N1CCCC(n2nc(-c3ccc(Oc4ccccc4)cc3F)c3c(N)ncnc32)C1)N1CCN(C2COC2)CC1 (stereo not shown) [Comparator 1, 2-[3-[4-amino-3-(2-fluoro-4-phenoxy-phenyl)pyrazolo[3,4-d]pyrimidin-1-yl]piperidine-1-carbonyl]-4-methyl-4-[4-(oxetan-3-yl)piperazin-1-yl]pent-2-enenitrile] | 18.3 μm | 237 μm | 694 μm | 0.28 g/cc | 0.39 g/cc | 1.4 |  | Mass loss during TGA ([3]; between 40° C. and 118° C.): 3.3% mass loss between 40 °C and 118 °C; Mass loss during TGA ([3]; between 118° C. and 237° C.): 3.2% mass loss between 118 °C and 237 °C
CC(C)(C=C(C#N)C(=O)N1CCCC(n2nc(-c3ccc(Oc4ccccc4)cc3F)c3c(N)ncnc32)C1)N1CCN(C2COC2)CC1 (stereo not shown) [Comparator 2, 2-[3-[4-amino-3-(2-fluoro-4-phenoxy-phenyl)pyrazolo[3,4-d]pyrimidin-1-yl]piperidine-1-carbonyl]-4-methyl-4-[4-(oxetan-3-yl)piperazin-1-yl]pent-2-enenitrile] | 56.9 μm | 258 μm | 575 μm | 0.20 g/cc | 0.27 g/cc | 1.4 | 90.1 °C | Mass loss during TGA ([3]; between 40° C. and 135° C.): 3.7% mass loss between 40 °C and 135 °C; Mass loss during TGA ([3]; between 135° C. and 233° C.): 2.3% mass loss between 135 °C and 233 °C
CC(C)(C=C(C#N)C(=O)N1CCCC(n2nc(-c3ccc(Oc4ccccc4)cc3F)c3c(N)ncnc32)C1)N1CCN(C2COC2)CC1 (stereo not shown) [Comparator 3, 2-[3-[4-amino-3-(2-fluoro-4-phenoxy-phenyl)pyrazolo[3,4-d]pyrimidin-1-yl]piperidine-1-carbonyl]-4-methyl-4-[4-(oxetan-3-yl)piperazin-1-yl]pent-2-enenitrile] |  |  |  |  |  |  | 90.1 °C | Mass loss during TGA ([3]; between 30° C. and 100° C.): 3.8% mass loss between 30 °C and 100 °C; Mass loss during TGA ([3]; between 100° C. and 140° C.): 17.6% mass loss between 100 °C and 140 °C
CC(C)(C=C(C#N)C(=O)N1CCCC(n2nc(-c3ccc(Oc4ccccc4)cc3F)c3c(N)ncnc32)C1)N1CCN(C2COC2)CC1 (stereo not shown) [Compound (I) prepared by a precipitation process described h] [2-[3-[4-amino-3-(2-fluoro-4-phenoxy-phenyl)pyrazolo[3,4-d]pyrimidin-1-yl]piperidine-1-carbonyl]-4-methyl-4-[4-(oxetan-3-yl)piperazin-1-yl]pent-2-enenitrile] | 1.9 μm |  | 476-683 μm |  |  | 1.2 |  | Tg at 25° C., 60% RH ([4]; 60% relative humidity, listed as Compound (I) prepared by precipitation process described herein (not micronized)): 69.6 °C; Mass loss during TGA ([3]; between 30° C. and 190° C.): 0.8% mass loss between 30 °C and 190° C.;; Mass loss during TGA ([3]; between 40° C. and 205° C.): 0.4% mass loss between 40 °C and 205° C.;; Mass loss during TGA ([3]; between 40° C. and 225° C.): 0.7% mass loss between 40 °C and 225 °C; Mass loss during TGA ([3]; between 43° C. and 230° C.): 1.9% mass loss between 43 °C and 230° C.;; Mass loss during TGA ([3]; between 44° C. and 230° C.): 1.0% mass loss between 44 °C and 230 °C
CC(C)(C=C(C#N)C(=O)N1CCCC(n2nc(-c3ccc(Oc4ccccc4)cc3F)c3c(N)ncnc32)C1)N1CCN(C2COC2)CC1 (stereo not shown) [Compound (I) prepared by a spray drying process described he] [2-[3-[4-amino-3-(2-fluoro-4-phenoxy-phenyl)pyrazolo[3,4-d]pyrimidin-1-yl]piperidine-1-carbonyl]-4-methyl-4-[4-(oxetan-3-yl)piperazin-1-yl]pent-2-enenitrile] | 5.24 μm | 13.3 μm | 28.4 μm | 0.20 g/cc | 0.28 g/cc | 1.4 |  | Tg at 25° C., 0% RH ([4]; listed as Compound (I) prepared by spray drying process described herein): 93.8 °C; Mass loss during TGA ([3]; between 35° C. and 230° C.): 1.2% mass loss between 35 °C and 230 °C
